Read-outs that look alike come from different tables or passages of the source.
How the values were obtained:
[1] = target: Factor XIa (Homo sapiens, UniProt P03951); experiment: Factor XIa inhibition assay (FLINT) utilizing a fluorophore-quencher pair peptide substrate 5Fam-[…]-K5Tamra; assay type: biochemical; settings: kinetic (KIN) reads, read-out: FXIa KIN Inh IC50
From the text: Biological Example 1: Factor XIa Inhibition Assay Utilizing a Fluorophore-Quencher Pair Peptide Substrate A fluorescence intensity (FLINT) based assay was used to monitor inhibition of Factor XIa. The peptide substrate, 5Fam-[…]-K5Tamra (purchased from New England Peptide) was chosen based on the FXI sequence. Conversion of zymogen FXI to its activated form, FXIa, occurs by proteolytic cleavage by […] at two sites, Arg146 and Arg180. The custom peptide used in this assay was based on the Arg146 cleavage site of FXI. The peptide substrate was designed with a fluorophore-quencher pair, where the fluorescence is quenched until FXIa cleaves the 8-mer peptide after the Arg residue.
The Factor XIa FLINT assay was used with the following 5Fam-[…]-K5Tamra assay buffer: 50 mM Tris, pH 7.5, 100 mM NaCl, 5 mM CaCl2, 0.1 mg/mL BSA, 0.03% CHAPS. Assay buffer was prepared by mixing all ingredients fresh. 5Fam-[…]-K5Tamra peptide substrate was first prepared at 10 mM in 100% DMSO, then diluted to 3 mM in 100% DMSO. Assay buffer was then added directly to the 3 mM stock of substrate to prepare the 30 μM 2× working concentration (15 μM final concentration). The 2× Factor XIa stock solution was prepared by diluting 6.562 μM stock in 1× assay buffer for a […].
Test compound(s) were run in an 11-point, 3-fold serial dilution with a final top compound concentration of 100 nM. Final DMSO in assay was 2%. FXIa was preincubated with compound for 30-minutes and then substrate was added to initiate the reaction. The assay was run with kinetic (KIN) reads at 5 min intervals over 30 minutes. […] More specifically, the assay was run as follows: • 100 nL of 0.01 mM test compound was dispensed into black 384-well non-binding Greiner BioOne 784900 plate for 0.1 μM final concentration; • 5 μL of 1× assay buffer was dispensed to column 24 (low control) and 5 μL 2× Factor XIa solution was dispensed to columns 1-23 (column 23 high control); • the plate was centrifuged with a “cover” plate at 500 rpm for 1 min • the plate was pre-incubated for 30 minutes at room temperature with plate covered; • 5 μL of 2×5Fam-[…]-K5Tamra peptide substrate was dispensed into the entire plate, columns 1-24; • the plate was centrifuged with a “cover” plate at 500 rpm for 1 min; • the plate was read monitoring fluorescence intensity on the BMG PHERAStar at room temperature, using fluorescence module 485 nm/520 nm.
(§1) Percent inhibition (IC50) curves were generated per compound tested, and data was analyzed using a 4-parameter logistic fit using GeneData Screener. The relative fluorescence unit (RFU) values were normalized to percent inhibition using the following equation:
% inhibition=((HC−LC)−(compound−LC)/(HC−LC))*100 where LC−low control=mean signal of no Factor XIa or 100% inhibition of Factor XIa; HC−high control=mean signal of Factor XIa+5Fam-[…]-K5Tamra peptide substrate with DMSO only.
(§2) An 11-point dose response curve for the test compound(s) was generated using GENDATA to determine IC50 value based on the following equation:
Y=Bottom+(Top−Bottom)/(1+10^((log IC50−X)*HillSlope)) where Y is the % inhibition in the presence of X inhibitor concentration, Top=high control=mean signal of Factor XIa+5Fam-[…]-K5Tamra peptide substrate with DMSO only; Bottom=low control−mean signal of no Factor XIa or 100% inhibition of Factor XIa; HillSlope−Hill coefficient; and IC50=concentration of compound with 50% inhibition in relation to top/high control.

[2] = target: human plasma kallikrein (Homo sapiens, UniProt P03952); experiment: Kallikrein inhibition assay (FLINT) utilizing a quenched AMC peptide substrate Z-Gly-Pro-Arg-AMC; assay type: biochemical; settings: kinetic (KIN) reads, read-out: Kallikrein KIN Inh IC50
From the text: Biological Example 2: Kallikrein Inhibition Assay Utilizing a Quenched AMC Peptide Substrate A fluorescence intensity (FLINT) based assay was used to monitor inhibition of human plasma kallikrein. The peptide substrate, Z-Gly-Pro-Arg-AMC (Purchased from Bachem; Catalog #I-1150) was chosen based on its relatively low KM for kallikrein which enables running the assay at lower substrate concentrations to control background fluorescence.
The Kallikrein FLINT assay was used with the following Z-Gly-Pro-Arg-AMC assay buffer: 50 mM Tris, pH 7.5, 100 mM NaCl, 5 mM CaCl2, 0.1 mg/mL BSA, 0.03% CHAPS. Assay buffer was prepared by mixing all ingredients fresh. 2× Z-Gly-Pro-Arg-AMC peptide substrate was prepared by diluting 10 mM stock into 1× assay buffer for a 100 μM working concentration (50 μM final concentration). The 2× kallikrein stock solution was prepared by diluting 14.76 μM stock in 1× assay buffer for a 4 nM working stock solution (2 nM final concentration).
Test compound(s) were run in an 11-point, 3-fold serial dilution with a final top compound concentration of 1 μM. Final DMSO in assay was 2%. Plasma kallikrein was pre-incubated for 30-minute with compound and then 50 μM substrate was added to initiate the reaction. The assay was run with kinetic (KIN) reads at 5 min intervals over 30 minutes. The time course was linear using 2 nM kallikrein greater than 30 minutes. More specifically, the assay was run as follows: • 100 nL of 0.1 mM test compound was dispensed into black 384-well non-binding Greiner BioOne 784900 plate for 1 μM final concentration; • 5 μL of 1× assay buffer was dispensed to columns 24 (low control) and 5 μL 2× human kallikrein enzyme solution was dispensed to columns 1-23 (column 23 high control); • the plate was centrifuged with a “cover” plate at 500 rpm for 1 min • the plate was pre-incubated for 30 minutes at room temperature with plate covered; • 5 μL of 2× Z-Gly-Pro-Arg-AMC peptide substrate was dispensed into the entire plate, columns 1-24; • the plate was centrifuged with a “cover” plate at 500 rpm for 1 min; • the plate was read monitoring fluorescence intensity on the BMG PHERAStar at room temperature, using fluorescence module 340 nm/440 nm.
as §1
% inhibition=((HC−LC)−(compound−LC)/(HC−LC))*100 where LC—low control=mean signal of […] or 100% inhibition of human kallikrein enzyme; HC—high control=mean signal of […]+Z-Gly-Pro-Arg-AMC peptide substrate with DMSO only.
as §2
Y=Bottom+(Top−Bottom)/(1+10^((log IC50−X)*HillSlope)) where Y is the % inhibition in the presence of X inhibitor concentration, Top=high control=mean signal of human kallikrein enzyme+Z-Gly-Pro-Arg-AMC peptide substrate with DMSO only; Bottom=low control−mean signal of no human kallikrein enzyme or 100% inhibition of human kallikrein enzyme; HillSlope−Hill coefficient; and IC50=concentration of compound with 50% inhibition in relation to top/high control.

Factor XIa, sequence (P03951 388-625 limits assumed): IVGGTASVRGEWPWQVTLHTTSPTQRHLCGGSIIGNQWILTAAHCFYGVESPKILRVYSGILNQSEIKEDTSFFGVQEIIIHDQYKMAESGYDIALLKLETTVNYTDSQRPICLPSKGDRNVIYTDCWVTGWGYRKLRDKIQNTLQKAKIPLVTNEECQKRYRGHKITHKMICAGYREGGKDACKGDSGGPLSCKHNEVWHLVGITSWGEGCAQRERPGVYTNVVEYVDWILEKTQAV
Factor XIa, sequence (P03951 19-387 partner limits assumed): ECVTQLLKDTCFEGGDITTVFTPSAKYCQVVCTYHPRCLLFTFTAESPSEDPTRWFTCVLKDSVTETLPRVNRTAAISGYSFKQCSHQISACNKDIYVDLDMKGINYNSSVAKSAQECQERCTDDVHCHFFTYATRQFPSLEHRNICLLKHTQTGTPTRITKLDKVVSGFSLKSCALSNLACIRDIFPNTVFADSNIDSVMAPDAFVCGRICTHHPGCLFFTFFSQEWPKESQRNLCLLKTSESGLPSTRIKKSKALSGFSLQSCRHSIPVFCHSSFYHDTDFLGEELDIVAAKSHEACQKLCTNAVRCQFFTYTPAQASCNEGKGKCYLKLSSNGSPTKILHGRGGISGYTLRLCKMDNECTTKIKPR
human plasma kallikrein, sequence (P03952 391-638 limits assumed): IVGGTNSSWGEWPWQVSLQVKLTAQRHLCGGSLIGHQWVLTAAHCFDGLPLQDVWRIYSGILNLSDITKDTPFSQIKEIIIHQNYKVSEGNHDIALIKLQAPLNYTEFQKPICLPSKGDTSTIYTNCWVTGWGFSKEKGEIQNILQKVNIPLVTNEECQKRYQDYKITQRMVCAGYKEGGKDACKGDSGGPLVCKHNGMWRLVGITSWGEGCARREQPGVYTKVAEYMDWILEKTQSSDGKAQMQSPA
human plasma kallikrein, sequence (P03952 20-390 partner limits assumed): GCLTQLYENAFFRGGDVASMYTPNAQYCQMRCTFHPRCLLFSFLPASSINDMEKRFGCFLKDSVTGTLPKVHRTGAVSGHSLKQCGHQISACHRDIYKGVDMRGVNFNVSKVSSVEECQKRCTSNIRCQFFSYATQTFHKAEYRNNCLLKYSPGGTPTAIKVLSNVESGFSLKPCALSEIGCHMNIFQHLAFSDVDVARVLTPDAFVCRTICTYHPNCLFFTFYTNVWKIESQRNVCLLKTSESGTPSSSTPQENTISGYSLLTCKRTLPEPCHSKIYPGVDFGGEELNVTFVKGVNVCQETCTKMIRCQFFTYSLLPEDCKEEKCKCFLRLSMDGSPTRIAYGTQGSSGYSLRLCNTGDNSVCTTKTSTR

SMILES | IC50 ([1]; values in nM) [nM] | IC50 ([2]; values in nM) [nM] | IC50 ([2]; unit μM) [nM] | IC50 ([1]; unit μM) [nM]
Nc1nsc2cc(-c3cnc([C@H]4CC5(CC5)c5nc(-c6c(-n7cnnn7)ccc(Cl)c6F)cc(=O)n54)[nH]3)ccc12 [Example 82, (R)-6′-(5-(3-Aminobenzo[d]isothiazol-6-yl)-1H-imidazol-2-yl)-2′-(3-chloro-2-fluoro-6-(1H-tetrazol-1-yl)phenyl)-6′,7′-dihydro-4′H-spiro[cyclopropane-1,8′-pyrrolo[1,2-a]pyrimidin]-4′-one] | 53.8 | 142 | – | –
C[C@H]1C[C@H](c2ncc(-c3ncc(N)nc3C(F)F)[nH]2)n2c1nc(-c1c(-n3cnnn3)ccc(Cl)c1F)cc2=O (relative stereo) [Example 85, (6*R,8*S)-6-(5-(5-Amino-3-(difluoromethyl)pyrazin-2-yl)-1H-imidazol-2-yl)-2-(3-chloro-2-fluoro-6-(1H-tetrazol-1-yl)phenyl)-8-methyl-7,8-dihydropyrrolo[1,2-a]pyrimidin-4(6H)-one] | 52 | – | > 1000 | –
CNC(=O)c1ccc(-c2cnc([C@@H]3C[C@H](C)c4cc(-c5c(-n6cnnn6)ccc(Cl)c5F)cc(=O)n43)[nH]2)cn1 [Example 12, 5-(2-((1S,3S)-7-(3-Chloro-2-fluoro-6-(1H-tetrazol-1-yl)phenyl)-1-methyl-5-oxo-1,2,3,5-tetrahydroindolizin-3-yl)-1H-imidazol-5-yl)-N-methylpicolinamide] | 63.7 | 205 | – | –
C[C@H]1C[C@@H](c2ncc(-c3ccc(N)nc3F)[nH]2)n2c1cc(-c1c(-n3cnnn3)ccc(Cl)c1F)cc2=O (stereo in doubt) [Example 68, (1*S,3*S)-3-(5-(6-Amino-2-fluoropyridin-3-yl)-1H-imidazol-2-yl)-7-(3-chloro-2-fluoro-6-(1H-tetrazol-1-yl)phenyl)-1-methyl-2,3-dihydroindolizin-5(1H)-one] | – | – | > 10000 | > 10000
C[C@H]1C[C@@H](c2ncc(-c3ccnc(N)n3)[nH]2)n2c1cc(-c1c(-n3cnnn3)ccc(Cl)c1F)cc2=O [Example 20, (1S,3S)-3-(5-(2-Aminopyrimidin-4-yl)-1H-imidazol-2-yl)-7-(3-chloro-2-fluoro-6-(1H-tetrazol-1-yl)phenyl)-1-methyl-2,3-dihydroindolizin-5(1H)-one] | 19.7 | 295 | – | –
C[C@@H]1C[C@@H](c2ncc(-c3cn[nH]c3)[nH]2)n2c1nc(-c1c(-n3cnnn3)ccc(Cl)c1F)cc2=O (stereo in doubt) [Example 111, (6*S,8*R)-6-(5-(1H-Pyrazol-4-yl)-1H-imidazol-2-yl)-2-(3-chloro-2-fluoro-6-(1H-tetrazol-1-yl)phenyl)-8-methyl-7,8-dihydropyrrolo[1,2-a]pyrimidin-4(6H)-one] | 22.6 | 146 | – | –
Nc1ccc(-c2cnc(C3CCCCc4cc(-c5c(-n6cnnn6)ccc(Cl)c5F)cc(=O)n43)[nH]2)c(F)n1 (stereo not drawn) [Cmpd (IV), 6-(5-(6-amino-2-fluoropyridin-3-yl)-1H-imidazol-2-yl)-2-(3-chloro-2-fluoro-6-(1H-tetrazol-1-yl)phenyl)-7,8,9,10-tetrahydropyrido[1,2-a]azepin-4(6H)-one] | 48 | 160 | – | –
O=c1cc(-c2c(-n3cnnn3)ccc(Cl)c2F)nc2n1[C@H](c1nc(-c3ccnc(OCC(O)C(F)(F)F)c3F)c[nH]1)CC21CC1 (single isomer, unassigned) [Example 74, (S)-2′-(3-chloro-2-fluoro-6-(1H-tetrazol-1-yl)phenyl)-6′-(4-(3-fluoro-2-((R*)-3,3,3-trifluoro-2-hydroxypropoxy)pyridin-4-yl)-1H-imidazol-2-yl)-6′,7′-dihydro-4′H-spiro[cyclopropane-1,8′-pyrrolo[1,2-a]pyrimidin]-4′-one] | 32.1 | 27.7 | – | –

Further compounds by falling IC50 ([1]; values in nM), results first:

IC50 ([1]; values in nM) [nM] | IC50 ([2]; values in nM) [nM] | IC50 ([2]; unit μM) [nM] | IC50 ([1]; unit μM) [nM] | SMILES
12.8 | 11.2 | – | – | C[C@@H]1C[C@H](c2ncc(-c3ccc(NC(=O)C4CC4)nc3)[nH]2)n2c1nc(-c1c(-n3cnnn3)ccc(Cl)c1F)cc2=O (stereo in doubt) [Example 120, N-(5-(2-((6*R,8*R)-2-(3-Chloro-2-fluoro-6-(1H-tetrazol-1-yl)phenyl)-8-methyl-4-oxo-4,6,7,8-tetrahydropyrrolo[1,2-a]pyrimidin-6-yl)-1H-imidazol-5-yl)pyridin-2-yl)cyclopropanecarboxamide]
7.3 | 42.9 | – | – | CC(C)(O)COc1nccc(-c2cnc(C3CC4(CC4)c4nc(-c5c(-n6cnnn6)ccc(Cl)c5F)cc(=O)n43)[nH]2)c1F (single isomer, unassigned) [Example 70, (R*)-2′-(3-Chloro-2-fluoro-6-(1H-tetrazol-1-yl)phenyl)-6′-(5-(3-fluoro-2-(2-hydroxy-2-methylpropoxy)pyridin-4-yl)-1H-imidazol-2-yl)-6′,7′-dihydro-4′H-spiro[cyclopropane-1,8′-pyrrolo[1,2-a]pyrimidin]-4′-one]
5.3 | 71.7 | – | – | Cc1nc(N)cnc1-c1cnc([C@@H]2CC(C)c3nc(-c4c(-n5cnnn5)ccc(Cl)c4F)cc(=O)n32)[nH]1 (stereo partly drawn) [Example 95, (6S)-6-(5-(5-Amino-3-methylpyrazin-2-yl)-1H-imidazol-2-yl)-2-(3-chloro-2-fluoro-6-(1H-tetrazol-1-yl)phenyl)-8-methyl-7,8-dihydropyrrolo[1,2-a]pyrimidin-4(6H)-one]
0.4 | 3.1 | – | – | C[C@@H]1C[C@@H](c2ncc(-c3ccc(N)nc3Cl)[nH]2)n2c1cc(-c1c(-n3cnnn3)ccc(Cl)c1F)cc2=O [Example 58, (1R,3S)-3-(5-(6-Amino-2-chloropyridin-3-yl)-1H-imidazol-2-yl)-7-(3-chloro-2-fluoro-6-(1H-tetrazol-1-yl)phenyl)-1-methyl-2,3-dihydroindolizin-5(1H)-one]
